Data reported in US20260103529A1, “Amino Acid Sequences Directed Against the Melanocortin 4 Receptor and Polypeptides Comprising the Same for the Treatment of MC4R-Related Diseases and Disorders” (Confo Therapeutics N.V., priority 2022, published 2026).

Legend:
Type in all cases: cell-based
[1] = test system: highly pigmented normal human epidermal melanocytes (NHEM-HP); assay: In vitro pigmentation assay, melanin synthesis, 2D NHEM highly pigmented; conditions: 10 days; for melanin synthesis compared to the non-stimulated control, reference compounds: 1 mM L-tyrosine, 100 μM IBMX or 10 μM NDP-MSH
Experimental: (§1) Highly and moderately pigmented melanocytes were seeded in 24-well plates and cultured in culture medium for 24 hours. The medium was then replaced by culture medium containing or not (control) the test compounds or the reference compounds (L-tyrosine at 1 mM, IBMX at 100 and 200 μM and NDP-MSH at 10 μM). The cells were then incubated for 10 days with treatment renewal at day 3 and day 7. All experimental conditions were performed in n=3. At the end of the incubation time, the culture supernatants were removed, and melanin was extracted by cell lysis using a 0.5 N NaOH solution. The optical density (OD) of each experimental point was measured at 405 nm and melanin quantity was determined according to melanin standard curve (standard curve ranging from 0.39 to 100 μg/ml). The results were expressed in μg/ml of melanin. […] NHEM-HP response to L-tyrosine and NDP-MSH was stronger than in NHEM-MP while IBMX induced a stronger response in the NHEM-MP.

[2] = test system: moderately pigmented normal human epidermal melanocytes (NHEM-MP); assay: In vitro pigmentation assay, melanin synthesis, 2D NHEM moderately pigmented; conditions: 10 days; for melanin synthesis compared to the non-stimulated control, reference compounds: 1 mM L-tyrosine, 100 μM IBMX or 10 μM NDP-MSH
Experimental: as §1

[3] = test system: melanized reconstituted human epidermis (RHE/MEL/001); assay: In vitro pigmentation assay, 3D reconstituted human epidermis, dermoscopy
Experimental: The study was carried out on melanized human epidermis (RHE/MEL/001; batch CB0521-3) in vitro reconstituted with NHEKs (Normal human epidermal keratinocytes, Lonza 00192906) isolated from foreskin of 3 neonatal Caucasian donors and NHEM-DP (Normal Human Epidermal Melanocytes-Darkly pigmented) isolated form one donor (phototype IV-V). The tissues were cultured at the air-liquid interface in Epilife medium (Fisher Scientific, MEP1500CA) containing specific supplements (with among others Human Keratinocytes Growth Factors, Fisher Scientific S0015 or SO01K) and antibiotics (Gentamycin, Fisher Scientific, 15710049). They were maintained in a humid atmosphere at 37° C. with 5% CO2.
RHE/MEL/001 were reconstituted and cultivated at the air-liquid interface during 14 days in Epilife medium supplemented with specific growth supplements (as described in paragraph 1) in a humid atmosphere at 37° C. with CO2 5%.
IBMX (Sigma; 15879) at 100 µM was used as tanning reference compound to validate the experiment. A DMSO control (corresponding to the solvent used to solubilize IBMX) at 0.02% (corresponding to the final concentration in DMSO found in the culture medium for the condition treated with IBMX) was planned as well. Four replicates were planned per condition (n=4).
At the end of the 10 days treatments (at day 14), macroscopic high-resolution pictures of tissues (n=4) were taken. This was performed using the C-Cube device (Dermoscope type tool; Pixience, France) coupled to C-Cube clinical 3 software, which uses a proprietary method of colour calibration, and provides razor-sharp images of high quality and precision. The following endpoints were calculated, each one taking into account 3 values from the mode “L* a* b*” with L* reflecting the luminance/brightness (value from 0 to 100 with high values for clear skins), a* to gives an idea about the redness of the skin (value from −60 to 60 on the red/green axis) and b* to gives an idea about the yellowness of the skin (value from −60 to 60 on the blue/yellow axis): • ITA (Individual Typology Angle) characterizing the phototype, compared to a standard scale, with ITA>55° for very clear skins and ITA<−30° for black skins. • PI (Pigmentation Index) whose value is directly proportional to the skin pigmentation, with PI from 140 for clear skins to 200 for dark skins. • Colorimetric difference (score or ΔE) allows to quantify colour variation between a test condition and a reference. […]
The two test items, hydro-soluble, were evaluated in parallel of one reference compound known to be a pigmentation inducer, namely IBMX. Their capacity to stimulate the production of melanin was evaluated by visual quantification of melanin on macroscopic high resolution pictures obtained by dermoscopy. […]

human wild type MC5R = molecular target: T1, human wild type MC5R (Homo sapiens, UniProt P33032); assay: cAMP GloSensor assay, MC5R; conditions: HEK293 cells transiently transfected with human MC5R; read-out: average signaling potency (EC50), cAMP GloSensor, MC5R
T1 construct: expressed in transfected cells; host or cells: HEK293 / HEK 293T, pcDNA3.1(+)
T1 sequence (P33032 whole entry): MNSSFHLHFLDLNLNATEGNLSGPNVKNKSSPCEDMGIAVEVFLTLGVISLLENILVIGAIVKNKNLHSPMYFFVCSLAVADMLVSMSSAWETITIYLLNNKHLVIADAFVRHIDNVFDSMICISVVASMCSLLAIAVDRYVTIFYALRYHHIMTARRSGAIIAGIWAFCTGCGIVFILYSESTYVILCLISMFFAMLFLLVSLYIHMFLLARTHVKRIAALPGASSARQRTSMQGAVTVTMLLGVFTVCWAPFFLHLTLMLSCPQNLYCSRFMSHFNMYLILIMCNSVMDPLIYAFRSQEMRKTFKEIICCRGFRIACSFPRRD

[4] = 10 μM in culture medium, 10 days, dermoscopy

## Setmelanotide acetate [reference compound]
[1]; 10 μM
  melanin synthesis: 130 % of the control
[2]
  modulation of melanin synthesis: did not modulate
[3]; [4]
  Individual typology angle (ITA): significantly modulated
  pigmentation index (PI): significantly modulated
  visual colorimetric difference (score, ΔE): significantly modulated
[3]; 10 μM, human epidermis in culture
  effect on epidermis pigmentation (conclusion of dermoscopy analysis): has a tanning effect

## NDP-MSH
[1]
  melanin synthesis compared to the non-stimulated control, reference compounds: induced a stimulation of melanin synthesis
[2]
  melanin synthesis compared to the non-stimulated control, reference compounds: induced a stimulation of melanin synthesis

## CC(=O)N[C@@H](CCCNC(=N)N)C(=O)N[C@H]1CSSC[C@@H](C(N)=O)NC(=O)[C@H](Cc2c[nH]c3ccccc23)NC(=O)[C@H](CCCNC(=N)N)NC(=O)[C@@H](Cc2ccccc2)NC(=O)[C@H](Cc2c[nH]cn2)NC(=O)[C@@H](C)NC1=O [setmelanotide, reference compound]
Human wild type MC5R
  EC50: 451 ± 143 nM

## N[C@@H](Cc1ccc(O)cc1)C(=O)O [L-tyrosine]
[1]
  melanin synthesis compared to the non-stimulated control, reference compounds: induced a stimulation of melanin synthesis
[2]
  melanin synthesis compared to the non-stimulated control, reference compounds: induced a stimulation of melanin synthesis

## CC(C)Cn1c(=O)n(C)c(=O)c2[nH]cnc21 [IBMX]
[1]
  melanin synthesis compared to the non-stimulated control, reference compounds: induced a stimulation of melanin synthesis
[2]
  melanin synthesis compared to the non-stimulated control, reference compounds: induced a stimulation of melanin synthesis
